One may read the IC50 as the concentration that inhibits the measured activity by half. Lower therefore signals inhibition by little substance.

The values below come from publication PMC12250835, “Novel 3-Methyl-1,6-Diazaphenothiazine as an Anticancer Agent—Synthesis, Structure, and In Vitro Anticancer Evaluation” (Molecules, 2025).

Some results are limits rather than exact numbers.

For assay [1], the system named is normal human fibroblasts (HDF). Description: WST-1 cell viability assay, HDF. The format is cell-based. The settings on record: for IC50: Homo sapiens, Fibroblast, concentration range 1–100 µM; for reduction in cell viability in comparison to the control: concentrations equal to and above 25 µM, all incubation time points. The procedure: [Worded in the source for another cell line; this cell line is reported under the same test.] (§1) Human A375, C32 amelanotic and COLO829, G361 melanotic melanoma cells, purchased from ATCC (ATCC Manassas, VA, USA), were incubated in a humidified 5% CO2 incubator at 37 °C. The cells were cultured in the recommended medium supplemented with inactivated fetal bovine serum and the following antibiotics: penicillin (100 U/mL), neomycin (10 μg/mL) and amphotericin B (0.25 μg/mL). Treatment with the studied compounds (B6–B10) began 24 h after seeding. The analyzed compound solutions were obtained by diluting stock solutions in a culture medium. The analysis via WST-1 assay was used for compound concentrations ranging from 1 µM to 100 µM. Other studies, concerning the assessment of intracellular GSH levels and apoptosis, were performed on the B8 and B10 derivatives at concentrations of 50 μM and 100 µM.
(§2) The viability of cells was assessed using the cell proliferation reagent WST-1. The reagent is a tetrazolium salt (slightly red) that can be reduced in viable cells to formazan dye (dark red) by mitochondrial dehydrogenases. In the analysis, WST-1 was added to cells cultured in 96-well microplates (10 µL/well) 3 h before the measurement. Absorbance at 440 nm was read using a microplate reader (Infinite 200 PRO, TECAN, Männedorf, Switzerland), and 650 nm was used as the reference wavelength. In the experiment, control samples were normalized to 100%. All the examined samples were calculated as percentages of the control.
(Formazan colour is commonly taken as a measure of viable cells.)

Assay [2] relates to C32 amelanotic melanoma cells. Description: WST-1 cell viability assay, C32. The format is cell-based. Particulars: Homo sapiens, concentration range 1–100 µM. The procedure:
as §1, §2

The subject of assay [3] is G361 melanotic melanoma cells. Description: WST-1 cell viability assay, G361. The format is cell-based. Particulars: Homo sapiens, G-361, concentration range 1–100 µM. The procedure:
as §1, §2

In assay [4] the test system is COLO829 melanotic melanoma cells. Description: WST-1 cell viability assay, COLO829. The format is cell-based. The settings on record: Homo sapiens, COLO-829, concentration range 1–100 µM. The procedure:
as §1, §2

Assay [5] relates to A375 amelanotic melanoma cells. Description: WST-1 cell viability assay, A375. The format is cell-based. Particulars: Homo sapiens, A-375, concentration range 1–100 µM. As for the experimental part:
as §1, §2

Assay [6] relates to C32 amelanotic melanoma cells. The experiment in a line: DNA fragmentation assay, C32. The format is cell-based, human. The settings on record: 72 h. The procedure:
as §1
(§3) For the DNA fragmentation assay, cells were fixed with 70% cold ethanol (24 h at 0–4 °C). In the next step of the analysis, the cell samples were washed with PBS, centrifuged, and stained with solution 3 (ChemoMetec, Lillerød, Denmark) containing DAPI and 0.1% triton X-100 in PBS. The analysis was conducted according to the DNA fragmentation assay protocol.

Assay [7] deals with G361 melanotic melanoma cells. The experiment in a line: Mitochondrial potential assay (JC-1), G361. The format is cell-based, human. Particulars: 72 h. The procedure: as §1
(§4) The mitochondrial potential assay was conducted using fluorescent cationic dye JC-1, which accumulates in the mitochondria in a potential-dependent manner. After cell treatment, samples were suspended in 12.5 µL of solution 7 (JC-1) (ChemoMetec, Lillerød, Denmark) and then incubated at 37 C for 10 min. In the next step, the […] cells were centrifuged for 5 min at 400× g, washed twice with PBS and resuspended in 0.25 mL of solution 8 (DAPI) (ChemoMetec, Lillerød, Denmark). In the last step of sample preparation, cells were loaded into 8-chamber NC-Slides A8™ and analyzed immediately using the mitochondrial potential assay protocol. Scatterplots of the obtained results were used to demarcate the percentage of cells with a different mitochondrial membrane potential.

In assay [8] the test system is G361 melanotic melanoma cells. Description: DNA fragmentation assay, G361. Particulars: G361, 100 µM, 72 h. The format is cell-based, human. As for the experimental part: as §1, §3
The subject of assay [9] is C32 amelanotic melanoma cells. The experiment in a line: Vitality assay, intracellular GSH level, C32. The format is cell-based, human. Particulars: 72 h. The procedure: as §1
(§5) All the experiments were performed using the fluorescence image cytometer NucleoCounter® NC-3000™ (ChemoMetec, Lillerød, Denmark). For the vitality assay, treatment cells were stained with solution 5 according to the manufacturer’s protocol and analysis was conducted using NucleoView NC-3000 software 2.1.25.12 (ChemoMetec, Lillerød, Denmark) according to the vitality assay protocol.

The test system of assay [10] is G361 melanotic melanoma cells. The experiment in a line: Vitality assay, intracellular GSH level, G361. Particulars: 72 h. The format is cell-based, human. The procedure: as §1, §5
The test system of assay [11] is C32 amelanotic melanoma cells. The experiment in a line: Mitochondrial potential assay (JC-1), C32. The format is cell-based, human. Particulars: 72 h. The procedure: as §1, §4
The subject of assay [12] is C32 cells. On the set-up: method as in PMID 31432325. The settings on record: 50 µM, 72 h incubation; cited from earlier work.
In assay [13] the test system is COLO829 cells. Further details: method as in PMID 31410885. The settings on record: 50 µM, 72 h incubation; cited from earlier work.

As to `Cc1cnc2c(c1)Sc1ncccc1N2` [B6, 10H-3-methyl-1,6-diazaphenothiazine], the IC50 worked out at 83.1 µM in assay [1] (24 h exposure); 40.1 µM in assay [1] (48 h exposure); 31.9 µM in [1] (72 h exposure); 94.3 µM in assay [2] (C32, 24 h exposure); 76.1 µM in assay [2] (C32, 48 h exposure); 18.1 µM in [2] (C32, 72 h exposure). The IC50 in assay [3] (G361, 24 h exposure) turned out to be 134 µM; in assay [3] (G361, 48 h exposure), 56.2 µM; in assay [3] (G361, 72 h exposure), 22.9 µM; in assay [4] (COLO829, 24 h exposure) it was 262 µM; in [4] (COLO829, 48 h exposure), 59 µM; in assay [4] (COLO829, 72 h exposure), 30.2 µM. The IC50 in [5] (A375, 24 h exposure) is 226 µM; in [5] (A375, 48 h exposure), 97.9 µM; in [5] (A375, 72 h exposure), 40 µM. Besides, in [1], the “reduction in cell viability in comparison to the control” value (from here on “reduction in cell viability”) is given as above 20%.
Regarding `Cc1cnc2c(c1)Sc1ncccc1N2C` [B7, 3,10-dimethyl-1,6-diazaphenothiazine], the IC50 in assay [1] (24 h exposure) came out at 55.4 µM; in assay [1] (48 h exposure), 31.7 µM; in [1] (72 h exposure), 30.5 µM; in [2] (C32, 24 h exposure), 91.4 µM; in assay [2] (C32, 48 h exposure), 89.7 µM; in [2] (C32, 72 h exposure), 22.2 µM. Also, the IC50 in assay [3] (G361, 24 h exposure) was 194 µM; in assay [3] (G361, 48 h exposure) it was 75.4 µM; in assay [3] (G361, 72 h exposure), 41.6 µM; in assay [4] (COLO829, 24 h exposure), 292 µM; in [4] (COLO829, 48 h exposure), 64.8 µM; in assay [4] (COLO829, 72 h exposure) it was 35.5 µM. Also, the IC50 in assay [5] (A375, 24 h exposure) was found to be 235 µM; in [5] (A375, 48 h exposure), 99.5 µM; in assay [5] (A375, 72 h exposure), 17.6 µM. Further, the “reduction in cell viability” value in assay [1] was above 20%.
Take `C=CCN1c2cccnc2Sc2cc(C)cnc21` [B8, 3-metyhl-10-allyl-1,6-diazaphenothiazine]: the “cells with fragmented DNA (M1)” value in assay [6] (C32, 50 µM) turned out to be 11%; in assay [6] (C32, 100 µM), 22%; in assay [8], 12%. Besides, the “depolarized (early apoptotic) cells (Q1lr)” value in assay [7] (G361, 50 µM) came out at 13%; in assay [7] (G361, 100 µM), 26%. Moreover, in assay [1] (75 µM and 100 µM, 48 h and 72 h of incubation), the “viability reduction in comparison to the control” value is recorded as above 20%. For the same molecule, the IC50 came out at 142 µM in assay [1] (48 h exposure); 125 µM in assay [1] (72 h exposure); 129 µM in assay [2] (C32, 24 h exposure); 105 µM in assay [2] (C32, 48 h exposure); 59.6 µM in assay [2] (C32, 72 h exposure); 168 µM in [3] (G361, 24 h exposure). Besides, the IC50 is 79.9 µM in assay [3] (G361, 48 h exposure); 24.6 µM in assay [3] (G361, 72 h exposure); 220 µM in [4] (COLO829, 24 h exposure); 64.1 µM in assay [4] (COLO829, 48 h exposure); 31.4 µM in assay [4] (COLO829, 72 h exposure); 393 µM in assay [5] (A375, 24 h exposure). The IC50 in assay [5] (A375, 48 h exposure) is 166 µM; in [5] (A375, 72 h exposure), 91.2 µM. Besides, the “cells with low GSH levels (Q1ll, GSH-depleted cells)” value amounted to 20% in assay [9] (C32, 50 µM); 36% in assay [9] (C32, 100 µM); 21% in [10] (G361, 50 µM); 33% in [10] (G361, 100 µM). In addition, the “depolarized cells, decreased mitochondrial membrane potential (Q1lr)” value in [11] (C32, 50 µM) was determined as 18%; in [11] (C32, 100 µM), 25%.
For the molecule `C#CCN1c2cccnc2Sc2cc(C)cnc21` [B9, 3-methyl-10-propargyl-1,6-diazaphenothiazine], the concentration for half-maximal inhibition (IC50) was determined as 57.4 µM in assay [1] (24 h exposure); 22.2 µM in [1] (48 h exposure); 11.3 µM in [1] (72 h exposure); 120 µM in assay [2] (C32, 24 h exposure); 167 µM in [2] (C32, 48 h exposure); 66.4 µM in assay [2] (C32, 72 h exposure). For the same molecule, the IC50 in assay [3] (G361, 24 h exposure) was found to be 116 µM; in assay [3] (G361, 48 h exposure) it was 97 µM; in assay [3] (G361, 72 h exposure) it was 57 µM; in assay [4] (COLO829, 24 h exposure), 136 µM; in [4] (COLO829, 48 h exposure) it was 61.5 µM; in assay [4] (COLO829, 72 h exposure) it was 49.5 µM. The concentration for half-maximal inhibition (IC50) in assay [5] (A375, 24 h exposure) worked out at 698 µM; in assay [5] (A375, 48 h exposure) it was 171 µM; in assay [5] (A375, 72 h exposure), 138 µM. For the same molecule, the “reduction in cell viability” value in assay [1] is recorded as above 20%.
On to `Cc1cnc2c(c1)Sc1ncccc1N2Cc1ccccc1` [B10, 3-methyl-10-benzyl-1,6-diazaphenothiazine], for which the “cells with fragmented DNA (M1)” value in assay [6] (C32, 100 µM) is reported as 10%; in [8] it was 10%. The “depolarized (early apoptotic) cells (Q1lr)” value is on record as 6% in [7] (G361, 50 µM) and 17% in assay [7] (G361, 100 µM). Besides, the IC50 in assay [1] (24 h exposure) is 1930 µM; in assay [1] (48 h exposure), 932 µM; in [1] (72 h exposure), 656 µM; in assay [2] (C32, 24 h exposure) it was 95.8 µM; in assay [2] (C32, 48 h exposure), 87 µM; in assay [2] (C32, 72 h exposure), 42.7 µM. In addition, the IC50 in assay [3] (G361, 24 h exposure) amounted to 132 µM; in assay [3] (G361, 48 h exposure), 100 µM; in assay [3] (G361, 72 h exposure) it was 43 µM; in assay [4] (COLO829, 24 h exposure), 178 µM; in assay [4] (COLO829, 48 h exposure) it was 75.5 µM; in assay [4] (COLO829, 72 h exposure) it was 37 µM. Also, the IC50 in [5] (A375, 24 h exposure) worked out at 511 µM; in [5] (A375, 48 h exposure) it was 109 µM; in assay [5] (A375, 72 h exposure) it was 60.4 µM. In addition, the “decrease of viability of cells” value in assay [1] (at any measurement point (1–100 µM; 24 h, 48 h, 72 h)) is on record as at most 10%. Further, the “cells with low GSH levels (Q1ll, GSH-depleted cells)” value in assay [9] (C32, 50 µM) was determined as 12%; in assay [9] (C32, 100 µM), 22%; in [10] (G361, 50 µM), 13%; in assay [10] (G361, 100 µM), 25%. For the same molecule, the “depolarized cells, decreased mitochondrial membrane potential (Q1lr)” value came to 15% in assay [11] (C32, 50 µM) and 21% in assay [11] (C32, 100 µM).
In the case of `CN(C)/N=N/c1[nH]cnc1C(N)=O` [dacarbazine], the “reduction in C32 cell viability (the analyzed parameter)” value in [12] was “about 50%”. Moreover, the “maximum reduction in COLO829 cell viability” value in [13] was “about 25%”.
